Assay results from US12339285B2, “Method for estimating therapeutic efficacy” (Konica Minolta, Inc., priority 2017, dated 2025).
Read-outs that look alike come from different tables or passages of the source.

Tested on: tumor tissue of lung cancer patients transplanted in SCID mice
Procedure: Further, tumor tissue was collected from each of the patients at the same time when drug administration was started, and a 2 mm-square piece of the tumor tissue was transplanted under the skin of SCID (Severe Combined ImminoDeficiency) mice (5 mice transplanted with tumor tissue derived from each patient were produced, and a total of 20 mice were produced). […] After 1 day and 100 days from the administration, tumor tissue was collected from the mice, and sample slides were prepared in the same manner as in Preparation for evaluation-1.

COc1cc2ncnc(Nc3ccc(F)c(Cl)c3)c2cc1OCCCN1CCOCC1 [Gefitinib]
resistance in PDX mice (PDX mice of the patient B or D (so in the source), judged from tumor volume): resistance was not developed
volume of tumor (PDX mice transplanted with tumor tissue of patient F or H (drug resistant on day 100)): once reduced on day 100 after drug administration, but was increased thereafter
resistance to Gefitinib in PDX mice (PDX mice transplanted with tumor tissue of patient F or H, judged from tumor volume): resistance to Gefitinib was developed
volume of tumor (PDX mice transplanted with tumor tissue of the patient B or D (so in the source) with no drug resistance on day 100): gradually reduced
